Measurements as given in PubChem BioAssay (NCI).
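All cell lines were grown in 96-well plates and treated with compound for 48 hours. At the TGI there is no net growth.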

Each compound was assayed on LOX IMVI melanoma (assay: DTP human tumour cell line panel, 48 h).

Structure (SMILES) | TGI
O=S1(=O)OCCOS(=O)(=O)C1F | > 100 µM
CC(=O)n1nc(-c2ccccc2)n(/N=C/c2ccc([N+](=O)[O-])cc2)c1=O | > 100 µM
COc1cc(C[S+]2CCCC2)c(SC)cc1C[S+]1CCCC1 | > 100 µM
COc1cc(-c2cc(=O)c3c(OC)c(OC)c(OC)c(OC)c3o2)c(OC)c(OC)c1OC | > 100 µM
C[C@]12C=CC(=O)C=C1CC[C@H]1[C@@H]3C[C@@H](O)[C@](O)(C(=O)CO)[C@@]3(C)C[C@H](O)[C@@]12F | > 100 µM
O=S(=O)(c1ccccc1)n1c2cc3cccnc3nc2c2cccnc21 | > 100 µM
COc1cc(/C=C2\CCC(C)C3C2=NN(C(C)=O)C3c2cc(OC)c(OC)c(OC)c2)cc(OC)c1OC (configuration not stated) | > 100 µM
CC(=O)NC1C(OCc2ccccc2)OC(CO)C(O)C1OC(C)C(=O)NC(C)C(=O)NC(CCC(=O)NCCCNc1c2ccccc2nc2cccc([N+](=O)[O-])c12)C(N)=O (configuration not stated) | 27.7 µM
NC(=O)C(N)Cc1ccc(O)cn1 (configuration not stated) | > 100 µM
CC[N+](CC)(CCNCC(N)=O)CC(N)=O | > 10 µM
Cc1ccc(/C=N/n2c(=O)[nH]c3ccccc3c2=O)cc1 | > 100 µM
S=C(c1c[nH]c2ccccc12)N1CCOCC1 | > 100 µM
COc1ccc(C2CC(=O)CC(c3ccc(OC)cc3)C23C(=O)NC(=O)NC3=O)cc1 (configuration not stated) | > 100 µM
c1ccc2sc(C3(N4CCCC4)CCCCCC3)cc2c1 | 33.2 µM

What follows are compounds tested on SK-MEL-5 melanoma (assay: DTP human tumour cell line panel, 48 h).

Structure (SMILES) | TGI
CC1CC(N)=Nc2ccccc2N1 (configuration not stated) | > 100 µM
CC(C)(Cc1ccccc1)NC1=NCCO1 | > 100 µM
CN(c1ccc(Cl)cc1)S(=O)(=O)c1cccc([N+](=O)[O-])c1 | 72.8 µM
O=C(c1ccc(O)cc1)C1c2c3c(cc(O)c2C(c2ccc(O)cc2)C1c1cc(O)cc(O)c1)OC(c1ccc(O)cc1)C3c1cc2c(cc1O)OC(c1ccc(O)cc1)C2c1cc(O)cc(O)c1 (configuration not stated) | > 12.5 µM
Cc1cc2nc3c(C#N)c(-c4ccccc4)cc(Nc4ccc(Cl)cc4)n3c2cc1C | > 100 µM
CN(c1ccc(Cl)cc1)S(=O)(=O)c1ccc([N+](=O)[O-])cc1 | > 100 µM
O=C1OC[C@@H]2Cc3cc4c(cc3[C@H](c3ccc5c(c3)OCO5)[C@@H]12)OCO4 | > 25 µM
O=S1(=O)OCCOS(=O)(=O)C1F | > 100 µM
CC(=O)n1nc(-c2ccccc2)n(/N=C/c2ccc([N+](=O)[O-])cc2)c1=O | > 100 µM
COc1cc(C[S+]2CCCC2)c(SC)cc1C[S+]1CCCC1 | > 100 µM
CCn1c(-c2cc(OC)cc(OC)c2)nc2c1C(=O)c1ccccc1C2=O | > 100 µM
COc1cc(-c2cc(=O)c3c(OC)c(OC)c(OC)c(OC)c3o2)c(OC)c(OC)c1OC | > 100 µM
C[C@]12C=CC(=O)C=C1CC[C@H]1[C@@H]3C[C@@H](O)[C@](O)(C(=O)CO)[C@@]3(C)C[C@H](O)[C@@]12F | > 100 µM
O=S(=O)(c1ccccc1)n1c2cc3cccnc3nc2c2cccnc21 | > 100 µM
COc1cc(/C=C2\CCC(C)C3C2=NN(C(C)=O)C3c2cc(OC)c(OC)c(OC)c2)cc(OC)c1OC (configuration not stated) | > 100 µM
Cc1cc(N(CCC#N)CCC#N)ccc1/C(N=Nc1ccc([N+](=O)[O-])cc1)=N\NC(=O)c1cc(Cl)ccc1C(=O)c1ccccc1 | 27.3 µM
CC(=O)NC1C(OCc2ccccc2)OC(CO)C(O)C1OC(C)C(=O)NC(C)C(=O)NC(CCC(=O)NCCCNc1c2ccccc2nc2cccc([N+](=O)[O-])c12)C(N)=O (configuration not stated) | 2.47 µM
NC(=O)C(N)Cc1ccc(O)cn1 (configuration not stated) | > 100 µM
CC[N+](CC)(CCNCC(N)=O)CC(N)=O | > 10 µM
COc1ccc(N=C2SC(=N/N=c3\sc4ccccc4n3C)SC2=Nc2ccc(OC)cc2)cc1 | > 100 µM
Cc1ccc(/C=N/n2c(=O)[nH]c3ccccc3c2=O)cc1 | > 100 µM
S=C(c1c[nH]c2ccccc12)N1CCOCC1 | > 100 µM
COc1ccc(C2CC(=O)CC(c3ccc(OC)cc3)C23C(=O)NC(=O)NC3=O)cc1 (configuration not stated) | 68 µM
COC(C)(C)C1=CCC(C)CC1 (configuration not stated) | > 100 µM
c1ccc2sc(C3(N4CCCC4)CCCCCC3)cc2c1 | 33.9 µM

The compounds below were run on TK-10 renal (assay: DTP human tumour cell line panel, 48 h).

Structure (SMILES) | TGI
CC1CC(N)=Nc2ccccc2N1 (configuration not stated) | > 100 µM
S=C(NCc1ccccc1)c1nc[nH]c1C(=S)NCc1ccccc1 | 23.9 µM
CC(C)(Cc1ccccc1)NC1=NCCO1 | > 100 µM
CN(c1ccc(Cl)cc1)S(=O)(=O)c1cccc([N+](=O)[O-])c1 | > 100 µM
O=C(c1ccc(O)cc1)C1c2c3c(cc(O)c2C(c2ccc(O)cc2)C1c1cc(O)cc(O)c1)OC(c1ccc(O)cc1)C3c1cc2c(cc1O)OC(c1ccc(O)cc1)C2c1cc(O)cc(O)c1 (configuration not stated) | > 12.5 µM
Cc1cc2nc3c(C#N)c(-c4ccccc4)cc(Nc4ccc(Cl)cc4)n3c2cc1C | > 100 µM
CN(c1ccc(Cl)cc1)S(=O)(=O)c1ccc([N+](=O)[O-])cc1 | > 100 µM
O=C1OC[C@@H]2Cc3cc4c(cc3[C@H](c3ccc5c(c3)OCO5)[C@@H]12)OCO4 | > 25 µM
O=S1(=O)OCCOS(=O)(=O)C1F | > 100 µM
CC(=O)n1nc(-c2ccccc2)n(/N=C/c2ccc([N+](=O)[O-])cc2)c1=O | > 100 µM
COc1cc(C[S+]2CCCC2)c(SC)cc1C[S+]1CCCC1 | > 100 µM
CCn1c(-c2cc(OC)cc(OC)c2)nc2c1C(=O)c1ccccc1C2=O | > 100 µM
COc1cc(-c2cc(=O)c3c(OC)c(OC)c(OC)c(OC)c3o2)c(OC)c(OC)c1OC | > 100 µM
C[C@]12C=CC(=O)C=C1CC[C@H]1[C@@H]3C[C@@H](O)[C@](O)(C(=O)CO)[C@@]3(C)C[C@H](O)[C@@]12F | > 100 µM
O=S(=O)(c1ccccc1)n1c2cc3cccnc3nc2c2cccnc21 | > 100 µM
COc1cc(/C=C2\CCC(C)C3C2=NN(C(C)=O)C3c2cc(OC)c(OC)c(OC)c2)cc(OC)c1OC (configuration not stated) | > 100 µM
Cc1cc(N(CCC#N)CCC#N)ccc1/C(N=Nc1ccc([N+](=O)[O-])cc1)=N\NC(=O)c1cc(Cl)ccc1C(=O)c1ccccc1 | > 100 µM
CC(=O)NC1C(OCc2ccccc2)OC(CO)C(O)C1OC(C)C(=O)NC(C)C(=O)NC(CCC(=O)NCCCNc1c2ccccc2nc2cccc([N+](=O)[O-])c12)C(N)=O (configuration not stated) | 9.97 µM
